Tested on: ANAP-incorporated TRPM8 mutants
Assay: patch-clamp test of function of ANAP-incorporated TRPM8 mutants
Format: cell-based, mouse
Conditions: Menthol 1 mM
Protocol: L-ANAP methyl ester was purchased from AsisChem. pANAP vector was purchased from Addgene. ANAP was incorporated into TRPM8 by introducing a TAG amber stop codon mutation as previously reported. Briefly, after co-transfection of both TRPM8 and pANAP vectors, ANAP was directly added to the culture medium to the final concentration of 20 µM. After 1–2 days, ANAP-containing culture medium was completely changed. Cells were further cultured in ANAP-free medium overnight before experiments.
Patch-clamp recordings were performed with a HEKA EPC10 amplifier controlled by PatchMaster software (HEKA). Whole-cell recordings were performed at ±80 mV. Patch pipettes were prepared from borosilicate glass and fire-polished to resistance of ~4 MΩ. For whole-cell recording, serial resistance was compensated by 60%. For single-channel recordings, patch pipettes were fire-polished to a higher resistance of 6-to-10 MΩ and then recorded in the inside-out configuration. To maximize the chance of obtaining a patch with only one channel, single-channel recordings were performed about 8 h after transfection. A solution with 130 mM NaCl, 10 mM glucose, 0.2 mM EDTA, and 3 mM HEPES (pH 7.2) was used in both bath and pipette for either whole-cell or single-channel recordings. Membrane potential was clamped at +80 mV for single-channel recordings. Current was sampled at 10 kHz and filtered at 2.9 kHz. All recordings were performed at room temperature (22 °C) with the maximum variation of 1 °C.
Supplementary Table 1. ANAP- incorporated TRPM8 mutants. The function of these
ANAP- incorporated mutants was accessed by patch- clamp recordings. Menthol (1 mM)
was perfused to activate a mutant channel.

Measured: Menthol activation

CC(C)[C@@H]1CC[C@@H](C)C[C@H]1O [menthol, (−)-menthol]
YES: A875ANAP (S5) | D920ANAP (Between S5 and S6) | I962ANAP (S6) | L774ANAP (S2) | L817ANAP (S3) | L864ANAP (S5) | L939ANAP (Between S5 and S6) | N789ANAP (S2S3 linker) | N821ANAP (S3-S4 linker) | N852ANAP (S4) | N947ANAP (Between S5 and S6) | P734ANAP (S1) | P952ANAP (Between S5 and S6) | P958ANAP (Between S5 and S6) | S819ANAP (S3-S4 linker) | S820ANAP (S3-S4 linker) | S823ANAP (S3-S4 linker) | S824ANAP (S4) | S921ANAP (Between S5 and S6) | S966ANAP (S6) | T795ANAP (S2S3 linker) | V791ANAP (S2S3 linker) | V876ANAP (S5) | W954ANAP (Between S5 and S6) | Y787ANAP (S2) | Y808ANAP (S3)

Source: PMC7391767, “Molecular mechanisms underlying menthol binding and activation of TRPM8 ion channel” (Nature Communications, 2020)
